The values that follow come from patent publication US20020193422A1, “Anthranilamides and methods of their use” (priority 2001, published 2002).

The target of this test is T1, Human Kv1.5 channels (Homo sapiens, UniProt P22460).
T1 construct: expressed in transfected cells; host or cells: Xenopus laevis oocytes (injected with in vitro synthesized Kv1.5 coding RNA)
As to the kind of experiment: Kv1.5 currents in Xenopus oocytes, two-microelectrode voltage clamp. Format: cell-based. The following applies: human Kv1.5 expressed in Xenopus laevis oocytes; 500 ms voltage jumps to 0 mV and 40 mV; room temperature; percentage inhibition of control current fitted with Hill equation. As to the method: Human Kv1.5 channels were expressed in xenopus oocytes. For this purpose, oocytes from Xenopus laevis were first isolated and defolliculated. Kv1.5 coding RNA synthesized in vitro was then injected into these oocytes. After Kv1.5 protein expression for 1-7 days, Kv1.5 currents were measured in the oocytes using the two-microelectrode voltage clamp technique. The Kv1.5 channels were activated here with 500 ms voltage jumps to 0 mV and 40 mV. The bath was flushed with a solution of the following: NaCl 96 mM, KCl 2 mM, CaCl2 1.8 mM, MgCl2 1 mM, HEPES 5 mM (titrated with NaOH to pH 7.4). These experiments were carried out at room temperature. The following were used for data collection and analysis: Geneclamp amplifier (Axon Instruments, Foster City, USA) and MacLab D/A converter and software (ADInstruments, Castle Hill, Australia). The compounds according to the invention were tested by adding them to the bath solution in different concentrations. The effects of the compounds were calculated as percentage inhibition of the Kv1.5 control current which was obtained when no compound was added to the solution. The data were then extrapolated using the Hill equation, in order to determine the inhibitory concentrations (IC50) for the respective compounds.

T1 sequence (P22460 whole entry): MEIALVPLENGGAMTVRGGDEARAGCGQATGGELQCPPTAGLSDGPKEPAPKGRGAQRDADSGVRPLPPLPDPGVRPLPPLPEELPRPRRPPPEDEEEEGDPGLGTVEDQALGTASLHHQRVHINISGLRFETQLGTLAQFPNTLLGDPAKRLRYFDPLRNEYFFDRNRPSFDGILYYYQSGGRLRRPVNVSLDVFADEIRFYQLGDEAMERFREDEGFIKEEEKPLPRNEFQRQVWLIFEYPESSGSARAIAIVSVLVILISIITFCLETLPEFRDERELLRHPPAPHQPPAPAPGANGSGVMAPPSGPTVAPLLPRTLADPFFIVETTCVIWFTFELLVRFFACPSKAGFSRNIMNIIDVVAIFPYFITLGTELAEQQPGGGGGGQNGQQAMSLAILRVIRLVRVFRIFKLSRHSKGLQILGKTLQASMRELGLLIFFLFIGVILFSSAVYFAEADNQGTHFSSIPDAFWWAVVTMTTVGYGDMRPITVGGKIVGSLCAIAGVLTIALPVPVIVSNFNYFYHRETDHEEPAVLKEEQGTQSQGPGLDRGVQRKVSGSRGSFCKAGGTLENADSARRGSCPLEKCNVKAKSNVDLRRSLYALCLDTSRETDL

As for `COc1ccc(NS(=O)(=O)c2cccc(C(F)(F)F)c2)c(C(=O)NCCc2cccs2)c1` [Example 1], half-maximal inhibition (IC50) was put at 3 µM.

On to `COc1ccc(S(=O)(=O)Nc2cc(F)ccc2C(=O)N(C)Cc2ccccc2)cc1` [Example 2], for which the IC50 is 4.1 µM.

The compound `COc1ccc(NS(=O)(=O)c2ccc(C)cc2)c(C(=O)NCc2ccc(C)o2)c1` [Example 3] yielded an IC50 of 2.1 µM.

For the compound `Cc1cccc(NS(=O)(=O)c2ccc(Cl)cc2)c1C(=O)NCc1ccc(Cl)cc1` [Example 4], the IC50 was 2.4 µM.

Consider `CCN(Cc1ccccc1)C(=O)c1ccccc1NS(=O)(=O)c1ccc(Cl)cc1` [Example 5], for which inhibition was half-maximal at 3.2 µM (IC50).

The compound `Cc1ccc(S(=O)(=O)Nc2ccccc2C(=O)NCc2ccccc2)cc1` [Example 6] came in with an IC50 of 4.1 µM.

Turning to `CCN(Cc1ccccc1)C(=O)c1ccccc1NS(=O)(=O)c1ccc(C)cc1` [Example 7], the IC50 worked out at 5 µM.

In the case of `Cc1ccc(S(=O)(=O)Nc2ccccc2C(=O)N(C)CCc2ccccc2)cc1` [Example 8], the IC50 is 4.6 µM.

As for `CCN(Cc1ccccc1)C(=O)c1ccccc1NS(=O)(=O)c1ccccc1` [Example 9], inhibition was half-maximal at 4.7 µM (IC50).

As to `O=C(NCCc1ccccc1)c1ccccc1NS(=O)(=O)c1ccccc1` [Example 10], the 50% inhibitory concentration (IC50) is 3.8 µM.

Regarding `CN(CCc1ccccc1)C(=O)c1ccccc1NS(=O)(=O)c1ccccc1` [Example 11], inhibition was half-maximal at 3.7 µM (IC50).

`Cc1ccc(S(=O)(=O)Nc2ccc(F)cc2C(=O)NCc2ccccc2)cc1` [Example 12] had an IC50 of 3.6 µM.

For the compound `CCN(Cc1ccccc1)C(=O)c1cc(F)ccc1NS(=O)(=O)c1ccc(C)cc1` [Example 13], the IC50 is 3.7 µM.

Consider `Cc1ccc(S(=O)(=O)Nc2ccc(F)cc2C(=O)NCCc2ccccc2)cc1` [Example 14], for which the 50% inhibitory concentration (IC50) was found to be 4.1 µM.

For `COc1ccc(S(=O)(=O)Nc2ccc(OC)cc2C(=O)N(C)Cc2ccccc2)cc1` [Example 15], the IC50 worked out at 4.5 µM.

`COc1ccc(CNC(=O)c2cc(OC)ccc2NS(=O)(=O)c2ccc(Cl)cc2)cc1` [Example 16]: the IC50 turned out to be 3.3 µM.

For `CCN(C(=O)c1cc(C)ccc1NS(=O)(=O)c1ccc(C)cc1)c1ccccc1` [Example 17], the IC50 was determined as 1.6 µM.

`Cc1ccc(S(=O)(=O)Nc2ccccc2C(=O)NCc2cccc(C)c2)cc1` [Example 18] registered an IC50 of 3.5 µM.

For `COc1ccc(NS(=O)(=O)c2ccc(C)cc2)c(C(=O)NCCc2cccs2)c1` [Example 19], the IC50 was 2.6 µM.

`Cc1ccc(CNC(=O)c2c(C)cccc2NS(=O)(=O)c2ccc(C)c(Cl)c2)o1` [Example 20] had an IC50 of 3.8 µM.

`CCCCS(=O)(=O)Nc1ccc(C)cc1C(=O)NCc1ccc(Cl)cc1` [Example 21] returned an IC50 of 6.1 µM.

`O=C(NCc1ccccc1)c1cc(Cl)ccc1NS(=O)(=O)c1ccc(Cl)cc1` [Example 22]: the IC50 was 6 µM.

Compound `COc1ccc(NS(=O)(=O)c2cccc3cccnc23)c(C(=O)NCCc2ccc(OC)c(OC)c2)c1` [Example 23] yielded an IC50 of 6.9 µM.

The compound `CN(Cc1ccccc1)C(=O)c1ccccc1NS(=O)(=O)c1cccc2cccnc12` [Example 24] gave an IC50 of 4.6 µM.

`CCc1ccc(S(=O)(=O)Nc2ccccc2C(=O)N(CC)c2ccccc2)cc1` [Example 25] showed an IC50 of 4.2 µM.

As to `CCN(C(=O)c1ccccc1NS(=O)(=O)c1ccc2ccccc2c1)c1ccccc1` [Example 26], the IC50 is 5.6 µM.

Compound `CCN(C(=O)c1ccccc1NS(=O)(=O)c1ccc(C)cc1OC)c1ccccc1` [Example 27] came in with an IC50 of 3 µM.

As for `CCN(C(=O)c1ccccc1NS(=O)(=O)c1cccc2cccnc12)c1ccccc1` [Example 28], the IC50 was determined as 1.2 µM.

Compound `CCN(C(=O)c1ccccc1NS(=O)(=O)c1cccc2ccccc12)c1ccccc1` [Example 29] registered an IC50 of 1.9 µM.

As usually defined, the IC50 is the concentration at which inhibition is half-maximal. Higher therefore signals a need for much substance.
